Source: PMC3606118, “Salvianolic Acid A, a Novel Matrix Metalloproteinase-9 Inhibitor, Prevents Cardiac Remodeling in Spontaneously Hypertensive Rats” (PLoS ONE, 2013)

Assays:
MMP-9 CD [1] = biological target: T1, MMP-9 CD (Homo sapiens, UniProt P14780, DEL217-390); assay: MMP-9 inhibition assay (thiopeptolide, enzyme kinetic analysis); format: biochemical; details: for inhibition on MMP-9 CD: enzyme kinetic assay; for Ki: spectrophotometric enzyme kinetic assay, thiopeptolide substrate
T1 construct: corresponding to residues 107–216 and 391–444; made in house
T1 sequence (P14780 with tags, fused parts or gaps DEL217-390 limits assumed): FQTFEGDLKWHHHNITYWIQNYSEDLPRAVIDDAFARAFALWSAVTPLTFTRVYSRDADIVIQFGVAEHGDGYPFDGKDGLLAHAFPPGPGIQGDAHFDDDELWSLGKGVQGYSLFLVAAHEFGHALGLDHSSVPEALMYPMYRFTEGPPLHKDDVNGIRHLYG
Procedure: Phenolic acids at the indicated concentrations were incubated with the reaction mixtures contained MMP-9 CD (15 nmol/L) and 5,5′-dithiobis-(2-nitrobenzoic acid) (1 mmol/L) at 4°C for 30 min. The reaction was initiated by the addition of thiopeptolide (Ac-Pro-Leu-Gly-S-Leu-Leu-Gly-OEt). Hydrolysis of thiopeptolide was monitored at 412 nm using Benchmark Plus™ microplate spectrophotometer (Bio-Rad) at room temperature. Kinetic analysis of phenolic acids against MMP-9 CD was calculated using double reciprocal plots of 1/V versus 1/[thiopeptolide]. The slope of every double reciprocal plot is the Km ^app/Vmax of enzyme at different compound concentration. Secondary plot was drawn through Km ^app/Vmax versus compound concentration. Km ^app is apparent value of Km; Ki is inhibition constant; Ki was calculated using the equation Ki = [Km/Vmax][compound]/(Km ^app/Vmax –Km/Vmax).

MMP-9 CD [2] = biological target: T1, MMP-9 CD; assay: Real time binding by surface plasmon resonance (Biacore); details: for binding on MMP-9 CD: surface plasmon resonance; for Kd: steady state affinity fit model, immobilized MMP-9 CD, 25°C, read-out: equilibrium dissociation constant (KD)
Procedure: DNA fragments encoding the catalytic domain of MMP-9 (MMP-9 CD, corresponding to residues 107–216 and 391–444) were constructed and subcloned into a pET-15b vector (Novagen). […]. Surface plasmon resonance analysis was performed using Biacore 3000 (Biacore AB). In brief, MMP-9 CD protein (5.8 µmol/L) in 10 mmol/L sodium acetate buffer (pH 3.73) was covalently immobilized on the hydrophilic carboxymethylated dextran matrix of the CM5 sensor chip (BIAcore AB) using standard primary amine coupling procedure. Phenolic acid at various concentrations in HBS-EP running buffer (10 mmol/L HEPES pH 7.4, 150 mmol/L NaCl, 3.4 mmol/L EDTA and 0.005% surfactant P20) were injected at a constant flow rate of 30 µL/min at 25°C. All data were analyzed by BIAevaluation software and the sensorgrams were processed by automatic correction for nonspecific bulk refractive index effects.

Compound: O=Cc1ccc(O)c(O)c1 [protocatechualdehyde]
- inhibition on MMP-9 CD (MMP-9 CD [1]): Neither binding nor inhibition was found
- binding on MMP-9 CD (MMP-9 CD [2]): Neither binding nor inhibition was found

Compound: O=C(O)[C@H](O)Cc1ccc(O)c(O)c1 [danshensu]
- inhibition on MMP-9 CD (MMP-9 CD [1]): Neither binding nor inhibition was found
- binding on MMP-9 CD (MMP-9 CD [2]): Neither binding nor inhibition was found

Compound: O=C(/C=C/c1ccc(O)c2oc(-c3ccc(O)c(O)c3)cc12)O[C@H](Cc1ccc(O)c(O)c1)C(=O)O [SalC, salvianolic acid C]
- Ki (MMP-9 CD [1]): 110 ± 33.1 µM
- Kd (MMP-9 CD [2]): 1.13 µM

Compound: O=C(/C=C/c1ccc(O)c(O)c1)O[C@H](Cc1ccc(O)c(O)c1)C(=O)O [rosmarinic acid]
- Ki (MMP-9 CD [1]): 126 ± 8.73 µM
- Kd (MMP-9 CD [2]): 10.7 µM

Compound: O=C(/C=C/c1ccc(O)c2c1[C@H](C(=O)O)[C@@H](c1ccc(O)c(O)c1)O2)O[C@H](Cc1ccc(O)c(O)c1)C(=O)O [lithospermic acid]
- Ki (MMP-9 CD [1]): 324 ± 132 µM
- Kd (MMP-9 CD [2]): 66.2 µM
